# Publication PMC7224568 (PLoS Pathogens, 2020)
# Entries after “also recorded” stand apart in the source; their conditions may differ.
# Experiments:
# soluble P14 TCR (mouse) [1] = assay: SPR
# soluble P14 TCR (mouse) [2] = assay: ITC
# P14 T cells [3] = type: cell-based, mouse
# P14 T cells [4] = type: cell-based, mouse; remark: listed apart in the source
# P14 T cells [5] = type: cell-based, mouse; remark: listed apart in the source
# H-2D^b (pMHC complex) = type: binding, mouse
# P14 T cells [6] = type: cell-based, mouse; remark: listed apart in the source
# P14 T cells [7] = type: cell-based, mouse; remark: listed apart in the source
# soluble TCR P14 [8] = type: binding, mouse
# soluble TCR P14 [9] = type: binding, mouse; remark: listed apart in the source
# TCR P14 = conditions: cited from earlier work
# T cell clone YF.F3 = conditions: cited from earlier work
substance,measurement,setting,value
H-2D^b/gp33 (from UniProt P01887 21-119) (peptide-MHC),Kd,soluble P14 TCR (mouse) [1],8.6 µM
same,Kd,soluble P14 TCR (mouse) [2],5.8 µM
same,dH,soluble P14 TCR (mouse) [2],-10.2 kcal/mol
KAPFNFATM [Peptide V3P_Y4F],tetramer recognition by LCMV-activated P14 T cells (in words),P14 T cells [3],a significant amount of the activated P14 T cells recognized the H-2D^b/V3P_Y4F complex
same,TNF and IFNγ production by LCMV-activated P14 T cells (in words),P14 T cells [4],produced TNF and IFNγ
KAPYNFATM [Peptide V3P],CD107a expression (degranulation) of P14 T cells (in words),P14 T cells [5],"induced significant production of TNF and IFNγ, as well as CD107a expression"
same,pMHC complex thermal stability (in words),H-2D^b (pMHC complex),consistent increase in pMHC complex thermal stability
same,"Tm (50% protein denaturation), in Fig 1A",H-2D^b (pMHC complex); pH 7.5,57.3 °C
same,Tm (temperature with 50% pMHC denaturation),H-2D^b (pMHC complex); pH 7.5,57.3±0.4 C
same,TNF and IFNγ production by P14 T cells (in words),P14 T cells [6],induced significant production of TNF and IFNγ
same,P14 TCR down-regulation / internalization (in words),P14 T cells [7],equaled or increased TCR internalization compared to gp33
same,thermodynamics of P14 binding (in words),soluble TCR P14 [8],mainly enthalpy-driven with almost null contribution of entropy; also recorded: the energy required for P14 recognition of V3P is reduced compared to gp33; also recorded: reduced unfavorable entropic contribution
same,TΔS,soluble TCR P14 [8]; pH 7.4,-0.5 ± 0.3 kcal/mol
same,ΔH,soluble TCR P14 [8]; pH 7.4,-8.5 ± 0.5 kcal/mol
same,P14 TCR binding to pMHC (in words),soluble TCR P14 [9],significantly higher binding affinity of soluble P14 TCR to H-2D^b/V3P compared to H-2D^b/gp33
KAVANFATM [Peptide Y4A],agonist class (in words),TCR P14,semi-agonist
"KAVYNFATM [gp33, reference compound]",CD107a expression (degranulation) of P14 T cells (in words),P14 T cells [5],"induced significant production of TNF and IFNγ, as well as CD107a expression"
same,pMHC complex thermal stability (in words),H-2D^b (pMHC complex),equivalent thermal stability
same,"Tm (50% protein denaturation), in Fig 1A",H-2D^b (pMHC complex); pH 7.5,53.7 °C
same,TNF and IFNγ production by P14 T cells (in words),P14 T cells [6],induced significant production of TNF and IFNγ
same,P14 TCR down-regulation / internalization (in words),P14 T cells [7],induced significant TCR down-regulation
same,thermodynamics of P14 binding (in words),soluble TCR P14 [8],entropically unfavorable
same,TNF and IFNγ production by LCMV-activated P14 T cells (in words),P14 T cells [4],produced TNF and IFNγ
same,IFNγ production by clone YF.F3 (in words),T cell clone YF.F3,did not produce high amounts IFNγ against gp33
same,killing of peptide-presenting targets by clone YF.F3 (in words),T cell clone YF.F3,killed efficiently targets presenting gp33
